# US7563592B2, “Alizarin-based chromogenic substrates, their uses and composition containing same” (Biomerieux, S.A., priority 1999, dated 2009)
# Tests used:
# [1] = system: Enterococcus faecalis 117; assay: β-galactosidase detection in semi-solid Columbia medium (Example 1); format: cell-based
# [2] = system: Acinetobacter spp.; assay: β-galactosidase detection on semi-solid medium, clinical and environmental strains (Example 2); format: cell-based; details: 50 mg/l + iron citrate 500 mg/l; 18 hours; 53 strains tested
# [3] = system: Aeromonas hydrophila; assay: as above; format: cell-based; details: 50 mg/l + iron citrate 500 mg/l; 18 hours; 3 strains tested
# [4] = system: Enterobacter agglomerans; assay: as above; format: cell-based; details: 50 mg/l + iron citrate 500 mg/l; 18 hours; 1 strain tested
# [5] = system: Enterobacter cloacae; assay: as above; format: cell-based; details: 50 mg/l + iron citrate 500 mg/l; 18 hours; 21 strains tested
# [6] = system: Hafnia alvei; assay: as above; format: cell-based; details: 50 mg/l + iron citrate 500 mg/l; 18 hours; 10 strains tested
# [7] = system: Klebsiella oxytoca; assay: as above; format: cell-based; details: 50 mg/l + iron citrate 500 mg/l; 18 hours; 13 strains tested
# [8] = system: Proteus mirabilis; assay: as above; format: cell-based; details: 50 mg/l + iron citrate 500 mg/l; 18 hours; 16 strains tested
# [9] = system: Proteus penneri; assay: as above; format: cell-based; details: 50 mg/l + iron citrate 500 mg/l; 18 hours; 1 strain tested
# [10] = system: Providencia stuartii; assay: as above; format: cell-based; details: 50 mg/l + iron citrate 500 mg/l; 18 hours; 10 strains tested
# [11] = system: Shigella dysenteriae; format: cell-based; details: 50 mg/l + iron citrate 500 mg/l; 18 hours; 2 strains tested
# [12] = system: Vibrio cholerae; format: cell-based; details: 50 mg/l + iron citrate 500 mg/l; 18 hours; 1 strain tested
# [13] = system: Yersinia enterocolitica; assay: β-galactosidase detection on semi-solid medium, clinical and environmental strains (Example 2); format: cell-based; details: 50 mg/l + iron citrate 500 mg/l; 18 hours; 14 strains tested
# [14] = system: Listeria innocua 029; assay: Effect of metal salts on the color of the marker part, substrate 50 mg/l in Columbia medium (Example 3); format: cell-based
# Protocol: (§1) To the Columbia-base medium (46.37 g/l) supplemented with Alizarin-2-β-D-glucoside (50 mg/l), were added either Manganese chloride, Ammoniacal iron citrate, Tin chloride, or Aluminum sulfate, all at a concentration of 50 mg/l. A control medium with no metal salts was tested in parallel. After autoclaving, these various media were all used to prepare Petri dishes (20 ml per plate). […] It should be pointed out that intensity readings are in arbitrary units. The only purpose of giving these values is to make it possible to compare one strain with another in this respect. The same is true for the examples which follow. Similarly, the strains tested were taken from the Applicant's collection and the number given represents an internal reference specific to this collection. The same internal numbering system is also used in some of the examples given later on.
# [15] = system: Listeria ivanovii 032; assay: as above; format: cell-based
# Protocol: as §1
# [16] = system: Listeria monocytogenes 079; assay: as above; format: cell-based
# Protocol: as §1
# [17] = system: Listeria ivanovii 018; assay: β-glucosidase detection in API strip wells (Example 6); details: 0.12 g/l + iron citrate 0.05 g/l
# [18] = system: Bacillus thuringiensis 072; assay: as above; details: 0.12 g/l + iron citrate 0.05 g/l; 24 H
# [19] = system: Klebsiella pneumoniae 023; assay: as above; details: 0.12 g/l + iron citrate 0.05 g/l
# [20] = Manganese chloride 50 mg/l, 24 H
# [21] = Manganese chloride 50 mg/l, 48 H
compound,measurement,setting,value
O=C1c2ccccc2C(=O)c2c1ccc(O[C@@H]1O[C@H](CO)[C@H](O)[C@H](O)[C@H]1O)c2O [Alizarin-2-β-D-galactoside],Color,"[1]; 0.01 g/l + iron citrate, 18 H",purple
same,Intensity,"[1]; 0.01 g/l + iron citrate, 18 H",0.3
same,Color,"[1]; 0.01 g/l + iron citrate, 24 H",purple
same,Intensity,"[1]; 0.01 g/l + iron citrate, 24 H",0.6
same,Color,"[1]; 0.01 g/l + iron citrate, 48 H",purple
same,Intensity,"[1]; 0.01 g/l + iron citrate, 48 H",0.6
same,Color,"[1]; 0.03 g/l + iron citrate, 18 H",purple
same,Intensity,"[1]; 0.03 g/l + iron citrate, 18 H",2.7
same,Color,"[1]; 0.03 g/l + iron citrate, 24 H",purple
same,Intensity,"[1]; 0.03 g/l + iron citrate, 24 H",3
same,Color,"[1]; 0.03 g/l + iron citrate, 48 H",purple
same,Intensity,"[1]; 0.03 g/l + iron citrate, 48 H",3.5
same,Color,"[1]; 0.05 g/l + iron citrate, 18 H",purple
same,Intensity,"[1]; 0.05 g/l + iron citrate, 18 H",4
same,Color,"[1]; 0.05 g/l + iron citrate, 24 H",purple
same,Intensity,"[1]; 0.05 g/l + iron citrate, 24 H",4
same,Color,"[1]; 0.05 g/l + iron citrate, 48 H",purple
same,Intensity,"[1]; 0.05 g/l + iron citrate, 48 H",4
same,Color,"[1]; 0.08 g/l + iron citrate, 18 H",purple
same,Intensity,"[1]; 0.08 g/l + iron citrate, 18 H",4
same,Color,"[1]; 0.08 g/l + iron citrate, 24 H",purple
same,Intensity,"[1]; 0.08 g/l + iron citrate, 24 H",4
same,Color,"[1]; 0.08 g/l + iron citrate, 48 H",purple
same,Intensity,"[1]; 0.08 g/l + iron citrate, 48 H",4
same,percentage of positive strains,[2],0%
same,percentage of positive strains,[3],100%
same,percentage of positive strains,[4],100%
same,percentage of positive strains,[5],100%
same,percentage of positive strains,[6],80%
same,percentage of positive strains,[7],100%
same,percentage of positive strains,[8],0%
same,percentage of positive strains,[9],0%
same,percentage of positive strains,[10],0%
same,percentage of positive strains,[11],0%
same,percentage of positive strains,[12],100%
same,percentage of positive strains,[13],64%
O=C1c2ccccc2C(=O)c2c1ccc(O[C@@H]1O[C@H](CO)[C@@H](O)[C@H](O)[C@H]1O)c2O [Alizarin-2-β-D-glucoside],Color,"[14]; Aluminum sulfate 50 mg/l, 24 H",red
same,Intensity,"[14]; Aluminum sulfate 50 mg/l, 24 H",4 arbitrary units
same,Color,"[14]; Aluminum sulfate 50 mg/l, 48 H",red
same,Intensity,"[14]; Aluminum sulfate 50 mg/l, 48 H",4 arbitrary units
same,Color,"[14]; Control, no metal salt, 24 H",purple
same,Intensity,"[14]; Control, no metal salt, 24 H",2 arbitrary units
same,Color,"[14]; Control, no metal salt, 48 H",purple
same,Intensity,"[14]; Control, no metal salt, 48 H",2.3 arbitrary units
same,Color,"[14]; Iron citrate 50 mg/l, 24 H",purple
same,Intensity,"[14]; Iron citrate 50 mg/l, 24 H",4 arbitrary units
same,Color,"[14]; Iron citrate 50 mg/l, 48 H",purple
same,Intensity,"[14]; Iron citrate 50 mg/l, 48 H",4 arbitrary units
same,Color,[14]; [20],purple
same,Intensity,[14]; [20],2.3 arbitrary units
same,Color,[14]; [21],purple
same,Intensity,[14]; [21],2.3 arbitrary units
same,Color,"[14]; Tin chloride 50 mg/l, 24 H",orange
same,Intensity,"[14]; Tin chloride 50 mg/l, 24 H",3 arbitrary units
same,Color,"[14]; Tin chloride 50 mg/l, 48 H",orange
same,Intensity,"[14]; Tin chloride 50 mg/l, 48 H",4 arbitrary units
same,Color,"[15]; Aluminum sulfate 50 mg/l, 24 H",red
same,Intensity,"[15]; Aluminum sulfate 50 mg/l, 24 H",4 arbitrary units
same,Color,"[15]; Aluminum sulfate 50 mg/l, 48 H",red
same,Intensity,"[15]; Aluminum sulfate 50 mg/l, 48 H",4 arbitrary units
same,Color,"[15]; Control, no metal salt, 24 H",purple
same,Intensity,"[15]; Control, no metal salt, 24 H",2.3 arbitrary units
same,Color,"[15]; Control, no metal salt, 48 H",purple
same,Intensity,"[15]; Control, no metal salt, 48 H",2.3 arbitrary units
same,Color,"[15]; Iron citrate 50 mg/l, 24 H",purple
same,Intensity,"[15]; Iron citrate 50 mg/l, 24 H",4 arbitrary units
same,Color,"[15]; Iron citrate 50 mg/l, 48 H",purple
same,Intensity,"[15]; Iron citrate 50 mg/l, 48 H",4 arbitrary units
same,Color,[15]; [20],purple
same,Intensity,[15]; [20],2.3 arbitrary units
same,Color,[15]; [21],purple
same,Intensity,[15]; [21],2.3 arbitrary units
same,Color,"[15]; Tin chloride 50 mg/l, 24 H",orange
same,Intensity,"[15]; Tin chloride 50 mg/l, 24 H",3 arbitrary units
same,Color,"[15]; Tin chloride 50 mg/l, 48 H",orange
same,Intensity,"[15]; Tin chloride 50 mg/l, 48 H",4 arbitrary units
same,Color,"[16]; Aluminum sulfate 50 mg/l, 24 H",red
same,Intensity,"[16]; Aluminum sulfate 50 mg/l, 24 H",4 arbitrary units
same,Color,"[16]; Aluminum sulfate 50 mg/l, 48 H",red
same,Intensity,"[16]; Aluminum sulfate 50 mg/l, 48 H",4 arbitrary units
same,Color,"[16]; Control, no metal salt, 24 H",purple
same,Intensity,"[16]; Control, no metal salt, 24 H",2.3 arbitrary units
same,Color,"[16]; Control, no metal salt, 48 H",purple
same,Intensity,"[16]; Control, no metal salt, 48 H",2.3 arbitrary units
same,Color,"[16]; Iron citrate 50 mg/l, 24 H",purple
same,Intensity,"[16]; Iron citrate 50 mg/l, 24 H",4 arbitrary units
same,Color,"[16]; Iron citrate 50 mg/l, 48 H",purple
same,Intensity,"[16]; Iron citrate 50 mg/l, 48 H",4 arbitrary units
same,Color,[16]; [20],purple
same,Intensity,[16]; [20],2.7 arbitrary units
same,Color,[16]; [21],purple
same,Intensity,[16]; [21],2.7 arbitrary units
same,Color,"[16]; Tin chloride 50 mg/l, 24 H",orange
same,Intensity,"[16]; Tin chloride 50 mg/l, 24 H",3.5 arbitrary units
same,Color,"[16]; Tin chloride 50 mg/l, 48 H",orange
same,Intensity,"[16]; Tin chloride 50 mg/l, 48 H",4 arbitrary units
same,Color observed,[17]; 4 H,Purple
same,Color observed,[17]; 24 H,Purple
same,Color observed,[18],Purple
same,Color observed,[19]; 4 H,Purple
same,Color observed,[19]; 24 H,Purple
